Laboratory results taken from patent publication US20100143455A1, “Triazole antifungal agents” (priority 2008, published 2010).

Assays:
[1] = tested on: Ergosterol Biosynthesis, Candida albicans_C286; test: Inhibition of ergosterol biosynthesis; type: cell-based, Candida albicans; conditions: RPMI-1640, 30° C., 48 h, read-out: IC50 Values for Inhabitation of Ergosterol Biosynthesis
Method: (§1) Compounds of the invention were tested for their ability to inhibit ergosterol biosynthesis. Testing was performed in 96-well round-bottom microtitration plates. Cell suspensions were prepared in RPMI-1640 medium and were adjusted to give a final inoculum concentration of 0.5×10^3 to 2.5×10^3 cells/ml. The plates were incubated incubated at 30° C. for 48 h before growth was assessed. The MIC of each compounds was defined as the lowest concentration at which there was 80% inhibition of growth compared with that in a drug-free control [O. N. Breivik and J. L. Owades, Agric. Food Chem., 5 (1957) 360-363; T. F. Patterson, S. G. Revankar, W. R. Kirkpatrick, O. Dib, A. W. Fothergill, S. W. Redding, D. A. Sutton and M. G. Rinaldi, J. Clin. Microbiol., 34 (1996) 1794-1797]. Ergosterol content was calculated as a percentage of the wet weight of the cell [National Committee for Clinical Laboratory Standards. 1997. Reference method for broth dilution antifungal susceptibility testing of yeasts, Approved standard. Document M27-A, National Committee for Clinical Laboratory Standards, Wayne, Pa.].

[2] = tested on: Ergosterol Biosynthesis, Aspergillus fumigatus_ND 158; test: Inhibition of ergosterol biosynthesis; type: cell-based, Aspergillus fumigatus; conditions: RPMI-1640, 30° C., 48 h, read-out: IC50 Values for Inhabitation of Ergosterol Biosynthesis
Method: as §1

Cryptococcus neoformans = test: In vitro activity test, agar dilution method (GMMIC); type: cell-based; conditions: 10 organisms, Kimmig's agar, 25° C.
Method: (§2) Organisms listed in Table 4 were tested according to an agar dilution method: Suspensions of each microorganism were prepared to contain […] colony forming units (cfu)/mL. All drugs were dissolved in a few drops of DMSO then diluted with ethanol—water (1/1, v/v) to make a stock solution of 500 μg/mL. The agar dilution method was performed in a medium of Kimmig's agar (K. A., Merck) −0.5% glycerol [R. A. Fromtling, G. K. Abruzzo and A. Ruiz, Mycopathologia, 106 (1989) 163-166]. Plates of Kimmig's agar containing serial dilutions (25 to 0.01 μg/mL) of the drugs were inoculated with 10 μL of the fungal inocula and incubated at 25° C. […] for yeasts and up to 5 days for filamentous fungi. Following incubation, GMMICs (geometric mean minimum inhibitory concentration μg/mL) were determined. In the table POCZ indicates posaconazole, ITRZ indicates itraconazole, and FLUZ indicates fluconazole. [Patterson, T. F., S. G. Revankar, W. R. Kirkpatrick, O. Dib, A. W. Fothergill, S. W. Redding, D. A. Sutton, and M. G. Rinaldi, J. Clin. Microbiol. 34 (1996) 1794-1797].

Candida Krusei = test: as above; type: cell-based; conditions: 22 organisms, Kimmig's agar, 25° C.
Method: as §2

Trichophyton rubrum = test: as above; type: cell-based; conditions: 17 organisms, Kimmig's agar, 25° C.
Method: as §2

Aspergillus Flavus = test: as above; type: cell-based; conditions: 9 organisms, Kimmig's agar, 25° C.
Method: as §2

Microsporum canis = test: as above; type: cell-based; conditions: 6 organisms, Kimmig's agar, 25° C.
Method: as §2

Row | SMILES | IC50 [1] | IC50 [2] | further results
1 | CCC(C(C)O)n1ncn(-c2ccc(N3CCN(c4ccc(CSC5CCC(Cn6cncn6)(c6ccc(F)cc6F)O5)cc4)CC3)cc2)c1=O (centres unmarked) [II-Rf (T), 4-(4-(4-(4-((5-((1H-1,2,4-triazol-1-yl)methyl)-5-(2,4-difluorophenyl)tetrahydrofuran-2-ylhio)methyl)phenyl)piperazin-1-yl)phenyl)-1-(2-hydroxypentan-3-yl)-1H-1,2,4-triazol-5(4H)-one] | 32.9 nM | 9.3 nM | 
2 | CCC(C(C)O)n1ncn(-c2ccc(N3CCN(c4ccc(SCC5CCC(Cn6cncn6)(c6ccc(F)cc6F)O5)cc4)CC3)cc2)c1=O (centres unmarked) [I-Rf (T), 4-(4-(4-(4-((5-((1H-1,2,4-triazol-1-yl)methyl)-5-(2,4-difluorophenyl)tetrahydrofuran-2-yl)methylthio)phenyl)piperazin-1-yl)phenyl)-1-(2-hydroxypentan-3-yl)-1H-1,2,4-triazol-5(4H)-one] | 32.1 nM | 9.5 nM | 
3 | CCC(C(C)O)n1ncn(-c2ccc(N3CCN(c4ccc(CSC5OCC(Cn6cncn6)(c6ccc(F)cc6F)O5)cc4)CC3)cc2)c1=O (centres unmarked) [II-Rf (D), 4-(4-(4-(4-((4-((1H-1,2,4-triazol-1-yl)methyl)-4-(2,4-difluorophenyl)-1,3-dioxolan-2-ylthio)methyl)phenyl)piperazin-1-yl)phenyl)-1-(2-hydroxypentan-3-yl)-1H-1,2,4-triazol-5(4H)-one] | 31.1 nM | 9.8 nM | 
4 | CCC(C)n1ncn(-c2ccc(N3CCN(c4ccc(CSC5OCC(Cn6cncn6)(c6ccc(F)cc6F)O5)cc4)CC3)cc2)c1=O (centres unmarked) [II-Ra (D), 4-(4-(4-(4-((4-((1H-1,2,4-triazol-1-yl)methyl)-4-(2,4-difluorophenyl)-1,3-dioxolan-2-ylthio)methyl)phenyl)piperazin-1-yl)phenyl)-1-sec-butyl-1H-1,2,4-triazol-5(4H)-one] | 34.3 nM | 10.3 nM | 
5 | CC[C@@H]([C@H](C)O)n1ncn(-c2ccc(N3CCN(c4ccc(OC[C@@H]5CO[C@@](Cn6cncn6)(c6ccc(F)cc6F)C5)cc4)CC3)cc2)c1=O [POCZ, posaconazole, reference compound] |  | 11.8 nM | 
6 | CC(O)C(C)n1ncn(-c2ccc(N3CCN(c4ccc(SCC5OCC(Cn6cncn6)(c6ccc(F)cc6F)O5)cc4)CC3)cc2)c1=O (centres unmarked) [I-Re (D), 4-(4-(4-(4-((4-((1H-1,2,4-triazol-1-yl)methyl)-4-(2,4-difluorophenyl)-1,3-dioxolan-2-yl)methylthio)phenyl)piperazin-1-yl)phenyl)-1-(3-hydroxybutan-2-yl)-1H-1,2,4-triazol-5(4H)-one] | 31.9 nM |  | 
7 | C=CC(C)n1ncn(-c2ccc(N3CCN(c4ccc(SCC5OCC(Cn6cncn6)(c6ccc(F)cc6F)O5)cc4)CC3)cc2)c1=O (centres unmarked) [I-Rg (D), 4-(4-(4-(4-((4-((1H-1,2,4-triazol-1-yl)methyl)-4-(2,4-difluorophenyl)-1,3-dioxolan-2-yl)methylthio)phenyl)piperazin-1-yl)phenyl)-1-(but-3-en-2-yl)-1H-1,2,4-triazol-5(4H)-one] | 33.8 nM | 10.2 nM | 
8 | CCC(C)n1ncn(-c2ccc(N3CCN(c4ccc(OCC5COC(Cn6cncn6)(c6ccc(Cl)cc6Cl)O5)cc4)CC3)cc2)c1=O (centres unmarked) [ITRZ, itraconazole] |  |  | GMMICS (geometric mean minimum inhibitory concentration) (Cryptococcus neoformans): 0.49 µg/mL; GMMICS (geometric mean minimum inhibitory concentration) (Candida Krusei): 0.60 µg/mL; GMMICS (geometric mean minimum inhibitory concentration) (Trichophyton rubrum): 3.1 µg/mL; GMMICS (geometric mean minimum inhibitory concentration) (Aspergillus Flavus): 0.35 µg/mL; GMMICS (geometric mean minimum inhibitory concentration) (Microsporum canis): 1.2 µg/mL
9 | CCC(C(C)O)n1ncn(-c2ccc(N3CCN(c4ccc(SCC5OCC(Cn6cncn6)(c6ccc(F)cc6F)O5)cc4)CC3)cc2)c1=O (centres unmarked) [I-Rf (D), 4-(4-(4-(4-((4-((1H-1,2,4-triazol-1-yl)methyl)-4-(2,4-difluorophenyl)-1,3-dioxolan-2-yl)methylthio)phenyl)piperazin-1-yl)phenyl)-1-(2-hydroxypentan-3-yl)-1H-1,2,4-triazol-5(4H)-one] | 33.4 nM | 9.9 nM | 
10 | CC(O)C(C)n1ncn(-c2ccc(N3CCN(c4ccc(SCC5CCC(Cn6cncn6)(c6ccc(F)cc6F)O5)cc4)CC3)cc2)c1=O (centres unmarked) [I-Re (T), 4-(4-(4-(4-((5-((1H-1,2,4-triazol-1-yl)methyl)-5-(2,4-difluorophenyl)tetrahydrofuran-2-yl)methylthio)phenyl)piperazin-1-yl)phenyl)-1-(3-hydroxybutan-2-yl)-1H-1,2,4-triazol-5(4H)-one] |  | 9.6 nM | 
